Reference: the supplement of paper PMC13380429

Experiments:
Settings in all cases: 72 h
U2OS [1] = test: relative viability EC50 (midpoint between 100% and the lowest measured viability); higher = less toxic
Calu-3 [2] = test: as above
Caco-2 [3] = test: as above
Vero E6 [4] = test: as above
HepG2 [5] = test: as above
U2OS [6] = test: cell viability relative to DMSO; higher = less toxic
Calu-3 [7] = test: as above
Caco-2 [8] = test: as above
Vero E6 [9] = test: as above
HepG2 [10] = test: as above
U2OS [11] = test: drug sensitivity score (DSS) for viability; higher = more toxic; extreme values may be limits of the assay
Calu-3 [12] = test: as above
Caco-2 [13] = test: as above
Vero E6 [14] = test: as above
HepG2 [15] = test: as above

SMILES	relative viability EC50 (U2OS [1]) [µM]	relative viability EC50 (Calu-3 [2]) [µM]	relative viability EC50 (Caco-2 [3]) [µM]	relative viability EC50 (Vero E6 [4]) [µM]	relative viability EC50 (HepG2 [5]) [µM]	cell viability (U2OS [6]; 1 nM) [%]	cell viability (U2OS [6]; 10 nM) [%]	cell viability (U2OS [6]; 100 nM) [%]	cell viability (U2OS [6]; 1000 nM) [%]	cell viability (U2OS [6]; 10000 nM) [%]	cell viability (Calu-3 [7]; 1 nM) [%]	cell viability (Calu-3 [7]; 10 nM) [%]	cell viability (Calu-3 [7]; 100 nM) [%]	cell viability (Calu-3 [7]; 1000 nM) [%]	cell viability (Calu-3 [7]; 10000 nM) [%]	cell viability (Caco-2 [8]; 1 nM) [%]	cell viability (Caco-2 [8]; 10 nM) [%]	cell viability (Caco-2 [8]; 100 nM) [%]	cell viability (Caco-2 [8]; 1000 nM) [%]	cell viability (Caco-2 [8]; 10000 nM) [%]	cell viability (Vero E6 [9]; 1 nM) [%]	cell viability (Vero E6 [9]; 10 nM) [%]	cell viability (Vero E6 [9]; 100 nM) [%]	cell viability (Vero E6 [9]; 1000 nM) [%]	cell viability (Vero E6 [9]; 10000 nM) [%]	cell viability (HepG2 [10]; 1 nM) [%]	cell viability (HepG2 [10]; 10 nM) [%]	cell viability (HepG2 [10]; 100 nM) [%]	cell viability (HepG2 [10]; 1000 nM) [%]	cell viability (HepG2 [10]; 10000 nM) [%]	drug sensitivity score (U2OS [11])	drug sensitivity score (Calu-3 [12])	drug sensitivity score (Caco-2 [13])	drug sensitivity score (Vero E6 [14])	drug sensitivity score (HepG2 [15])
CCOC(=O)C1=C(C)NC(C)=C(C(=O)OCC)C1c1ccccc1/C=C/C(=O)OC(C)(C)C [lacidipine]	> 10	> 10	> 10	> 10	> 10	96.6	95.2	98.5	92.1	97.5	97	89.8	106	93	91	97.4	91	90.2	84.7	79	92	99.4	89.7	99.6	106	96.2	102	96.8	114	91.9	0	0	2.5	0	0
CC(=O)OCC(=O)[C@H]1CC[C@H]2[C@@H]3CC[C@H]4C[C@H](O)CC[C@]4(C)[C@H]3C(=O)C[C@]12C [alfadolone-acetate]	> 10	> 10	> 10	> 10	> 10	105	97.7	98.7	103	100	99.9	101	99.8	111	91.3	99.9	102	102	101	100	106	104	98.3	104	97.3	98.7	101	109	104	102	0	0	0	0	0
CN(C)C/C=C/C(=O)Nc1cc2c(Nc3ccc(F)c(Cl)c3)ncnc2cc1O[C@H]1CCOC1 [afatinib]	2.32	0.0181	0.496	0.465	2.45	95.8	100	93.2	91.1	13.6	88.7	57.8	32.1	28.8	9.1	109	90.4	83	73.4	46.1	101	93.7	66	51.7	3.8	117	96.1	104	93.7	27.6	6.2	27.9	7.2	14.2	5
CC(C)(O)CC(=O)O [beta-hydroxy-beta-methylbutyrate]	> 10	> 10	> 10	> 10	> 10	105	99.5	98.1	95.9	99.5	98.7	100	105	102	113	102	92.2	99.4	92.6	97.2	106	108	101	99.5	100	91.8	94.3	101	104	93.3	0	0	0	0	0
Cc1c(-c2ccnn2C)cc(C(=O)NCc2ccc(S(C)(=O)=O)cn2)c(=O)n1-c1cccc(C(F)(F)F)c1 [AZD9668]	> 10	> 10	> 10	> 10	> 10	97	93.6	102	95.7	102	94.5	103	99.9	92.9	97.1	93.9	101	106	96.9	101	97.3	102	89.7	92.2	107	101	102	98	108	103	0	0	0	0	0
CC(C)C(=O)c1c(C(C)C)nn2ccccc12 [ibudilast]	> 10	> 10	> 10	> 10	> 10	94.6	102	97.4	104	104	95.7	94.1	93	104	107	91.2	89.9	93.3	102	107	96.8	97.4	98.9	94.7	103	94.5	101	109	88.8	99.2	0	0	0	0	0
O=C(O)CNC(=O)C(CS)Cc1ccccc1 (stereo not given) [thiorphan]	> 10	> 10	> 10	> 10	> 10	99.4	103	98.7	98.7	96.9	103	99.5	98.6	95.5	114	107	99	86.2	102	110	107	95	94.3	101	104	94.2	90.9	99.7	92.1	95.7	0	0	0	0	0
